From patent US20180043017A1, “PHARMACEUTICAL COMPOSITIONS COMPRISING 0.5 MG DOSE OF SYNTHETIC HUMAN PEPTIDES FOR TREATING SYSTEMIC LUPUS ERYTHEMATOSUS” (XTL Biopharmaceuticals Ltd., priority 2016, published 2018)
Read-outs that look alike come from different tables or passages of the source.

Assays:
SLE patients [1] = details: in vivo
Description: (§1) The PRELUDE Study was a phase 2, multinational, multicenter, randomized, double-blind, placebo-controlled, multiple-dose, parallel group study to assess the efficacy, tolerability and safety of three doses of subcutaneously injected Edratide in SLE patients.
(§2) The total study treatment duration was 26 weeks. Scheduled visits were performed at screening, baseline and at weeks 4, 8, 12, 16, 20, 24, and 26 (termination). […] Non-compliance with the tapering down scheme was not regarded as a protocol violation. During the entire course of the study it was allowed to increase the steroid prednisolone dose to up to 60 mg. Use of intravascular/intramuscular steroid was considered a protocol violation. […] Edratide and CAPTISOL® pharmacokinetic (PK) profiles were characterized in a small group of patients. PK assessment of CAPTISOL® for all four treatment groups was conducted following the first dose and Weeks 12 and 26 doses. Disease and drug related immunology parameters were tested at baseline and at several time points thereafter.
(§3) The co-primary end-points presented in their hierarchical order below were: • Change from baseline to last observed value (LOV) in SLEDAI 2K score (Landmark Analysis.) • Adjusted Mean SLEDAI 2K (AMS). AMS represents the time weighted average of disease activity as measured by SLEDAI 2K score [area under the curve (AUC) of SLEDAI 2K].
(§4) Secondary End-Points: • BILAG proportion of responders. BILAG responders were defined as: • a. Non Responder (NR)—same BILAG score in Last Observed Value (LOV) as in baseline in all systems or new A or B in at least one system compared to baseline (other systems may improve or deteriorate). • b. […] Change from baseline to LOV • SF-36 (QoL) Physical component Score—Change from Baseline to LOV • Time Weighted Average (TWA) on cumulative steroids dose with p.o. administration.
(§5) Exploratory End-Points: • Primary end-point sensitivity analysis to steroid increase (excluding the observations following steroid increase) • Proportions of Zero SLEDAI Score at LOV • Time to Zero SLEDAI Score • BILAG Total Score—Change from Baseline to LOV
(§6) Flares Analysis: • Time to medicinal flare • Time to new BILAG A or at least two new B's • Time to new BILAG A or at least two new B's (excluding persistent activity) • Steroid dose (PO)—Change from baseline to LOV • PGA—Physician's Global Assessment

SLE patients [2] = details: cited from earlier work
[3] = test system: mice afflicted with spontaneous or experimental SLE; details: mouse, in vivo; cited from earlier work
[4] = test system: peripheral blood lymphocytes (PBL) of SLE patients; details: cited from earlier work
SLE patients [5] = details: cited from earlier work; for incidence of adverse events (AEs): placebo 75%
SLE patients [6] = test: PRELUDE phase 2 study, three doses of subcutaneously injected Edratide, 26 weeks; details: for AE incidence: placebo 79.3%; for early withdrawal due to AE: placebo 2.3%
Description: as §1, §2, §3, §4, §5, §6

**Q.** For CC[C@H](C)[C@H](NC(=O)[C@H](Cc1c[nH]c2ccccc12)NC(=O)[C@H](CO)NC(=O)[C@H](Cc1c[nH]c2ccccc12)NC(=O)[C@H](Cc1ccc(O)cc1)NC(=O)[C@H](Cc1ccc(O)cc1)NC(=O)CN)C(=O)C[C@@H](CCCNC(=N)N)C(=O)N[C@@H](CCC(N)=O)C(=O)N1CCC[C@H]1C(=O)N1CCC[C@H]1C(=O)NCC(=O)N[C@@H](CCCCN)C(=O)NCC(=O)N[C@@H](CCC(=O)O)C(=O)N[C@@H](CCC(=O)O)C(=O)N[C@@H](Cc1c[nH]c2ccccc12)C(=O)N[C@H](C(=O)NCC(=O)O)[C@@H](C)CC (stereo in doubt) [Edratide, H-Gly-Tyr-Tyr-Trp-Ser-Trp-Ile-Arg-Gln-Pro-Pro-Gly-Lys-Gly-Glu-Glu-Trp-Ile-Gly-OH], which “subjects with herpes simplex” value (SLE patients [1]) is on record?
**A.** The value was 8 subjects.

**Q.** What about the “subjects with herpes viral infections” value (SLE patients [1]) of the same compound?
**A.** The value was 11 subjects.

**Q.** What about the “subjects with herpes zoster” value (SLE patients [1]) of the same compound?
**A.** Its value is 3 subjects.

**Q.** And the “subjects with increase in total SLEDAI-2K score of 0-3 points” value (SLE patients [2]; 0.5 mg group)?
**A.** Its value is “Two”.

**Q.** And the “subjects with increase in total SLEDAI-2K score of 0-3 points” value (SLE patients [2]; 2.5 mg group)?
**A.** Its value is 2 subjects.

**Q.** And the “overall incidence of AEs between all treatment groups” value (SLE patients [2]; 0.5, 1 or 2.5 mg sc twice weekly for 4 weeks vs placebo)?
**A.** Its value is “no prominent difference”.

**Q.** What about the “severity of injection site reactions” value (SLE patients [2]; all injection site reactions, majority resolved on day of injection) of the same compound?
**A.** The value was “mild”.

**Q.** What about the “subjects reporting AEs during 8-week follow-up period (off-drug)” value (SLE patients [2]; all treatment groups) of the same compound?
**A.** The value was “Approximately 50%”.

**Q.** What about the “adjusted mean SLEDAI (AMS) score change, baseline to termination visit” value (SLE patients [2]; all treatment groups, decreased (improved)) of the same compound?
**A.** The value was −0.1 to −1.5 points.

**Q.** And the “trend in mean group total BILAG score” value (SLE patients [2]; any treatment group)?
**A.** The value was “No trend”.

**Q.** What about the “SAE throughout the study” value (SLE patients [2]; in vivo) of the same compound?
**A.** The value was “No SAE was reported”.

**Q.** What about the “incidence of AEs during 8-week follow-up period (off-drug), active groups vs placebo” value (SLE patients [2]; in vivo) of the same compound?
**A.** The value was “no prominent difference”.

**Q.** And the “disease manifestations of mice afflicted with spontaneous or experimental SLE” value [3]?
**A.** The value was “ameliorate disease manifestations”.

**Q.** And the “proliferative response of PBL of SLE patients to the human anti-DNA 16/6Id mAB” value [4]?
**A.** The value was “inhibit the proliferative response”.

**Q.** What about the “increase of total SLEDAI-2K score in one subject” value (SLE patients [5]; 0.5 mg group, Week 4 after dosing, not confirmed as lupus flare) of the same compound?
**A.** The value was 2 to 10 points.

**Q.** And the “change of total SLEDAI-2K score” value (SLE patients [5]; any subject during the study, except one subject in the 0.5 mg group)?
**A.** Its value is “No noteworthy change”.

**Q.** What about the “incidence of adverse events (AEs)” value (SLE patients [5]; single sc injection 0.5 mg, % of the subjects) of the same compound?
**A.** The value was 33%.

**Q.** What about the “incidence of adverse events (AEs)” value (SLE patients [5]; single sc injection 1 mg) of the same compound?
**A.** The value was 67%.

**Q.** And the “incidence of adverse events (AEs)” value (SLE patients [5]; single sc injection 2.5 mg)?
**A.** Its value is 80%.

**Q.** And the “Serious Adverse Events (SAEs), number of subjects” value (SLE patients [6]; 0.5 mg)?
**A.** Its value is 6 subjects.

**Q.** What about the “change in SF-36 mental score compared to placebo” value (SLE patients [6]; 0.5 mg) of the same compound?
**A.** The value was “slightly better”.

**Q.** What about the “change in SF-36 physical score compared to placebo” value (SLE patients [6]; 0.5 mg) of the same compound?
**A.** The value was “opposite trend”.

**Q.** And the “early withdrawal due to AE, number of subjects” value (SLE patients [6]; 0.5 mg)?
**A.** Its value is 5 subjects.

**Q.** And the “post hoc analysis on BILAG responders, system improved” value (SLE patients [6]; 0.5 mg)?
**A.** The value was “improvement mainly in the cutaneous system”.

**Q.** And the “subjects who prematurely terminated the study” value (SLE patients [6]; 0.5 mg (84 randomized))?
**A.** The value was “Thirteen”.

**Q.** What about the “deaths during the study” value (SLE patients [6]; 0.5 mg group) of the same compound?
**A.** The value was “One”.

**Q.** And the “relation of death to study drug as classified by investigators” value (SLE patients [6]; 0.5 mg group, most probably septic shock)?
**A.** The value was “not related to the study drug”.

**Q.** What about the AE incidence (SLE patients [6]; 0.5 mg weekly) of the same compound?
**A.** The AE incidence was 82.1%.

**Q.** And the BILAG substantial responders (SLE patients [6]; 0.5 mg, ITT, LOV vs baseline, placebo 22%, p=0.03)?
**A.** Its BILAG substantial responders is 36%.

**Q.** And the “subjects with medicinal flare” value (SLE patients [6]; 0.5 mg, ITT, post hoc, placebo 29%, p=0.039)?
**A.** The value was 17%.

**Q.** What about the “BILAG substantial response odds ratio (OR) vs placebo” value (SLE patients [6]; 0.5 mg, ITT, p=0.03) of the same compound?
**A.** The value was 2.09.

**Q.** What about the “medicinal flare OR vs placebo” value (SLE patients [6]; 0.5 mg, ITT, p=0.039) of the same compound?
**A.** Its value is 0.43.

**Q.** And the BILAG substantial responders (SLE patients [6]; 0.5 mg, no steroids at baseline, placebo 13%, p=0.05)?
**A.** The BILAG substantial responders was 54%.

**Q.** And the “early withdrawal due to AE” value (SLE patients [6]; 0.5 mg)?
**A.** Its value is 6.0%.

**Q.** What about the “Serious Adverse Events (SAEs) incidence” value (SLE patients [6]; 0.5 mg, placebo 10.3%) of the same compound?
**A.** Its value is 7.1%.

**Q.** What about the “Serious Adverse Events (SAEs), number of subjects” value (SLE patients [6]; 1.0 mg) of the same compound?
**A.** The value was 10 subjects.

**Q.** What about the “early withdrawal due to AE, number of subjects” value (SLE patients [6]; 1.0 mg) of the same compound?
**A.** Its value is 3 subjects.

**Q.** What about the “subjects who prematurely terminated the study” value (SLE patients [6]; 1.0 mg (87 randomized)) of the same compound?
**A.** The value was 13 subjects.

**Q.** And the subjects with zoster (SLE patients [6]; 1 mg group)?
**A.** Its subjects with zoster is 2 subjects.

**Q.** What about the AE incidence (SLE patients [6]; 1 mg weekly) of the same compound?
**A.** Its AE incidence is 77%.

**Q.** And the “proportion of BILAG substantial responders compared to placebo” value (SLE patients [6]; 1 mg, lesser extent than 0.5 mg)?
**A.** The value was “trend toward increasing the proportion of substantial responders”.

**Q.** And the “BILAG substantial response OR vs placebo” value (SLE patients [6]; 1 mg, p=0.07 without correction for multiple comparison)?
**A.** The value was 1.85.

**Q.** What about the “early withdrawal due to AE” value (SLE patients [6]; 1.0 mg) of the same compound?
**A.** The value was 3.4%.

**Q.** What about the “Serious Adverse Events (SAEs) incidence” value (SLE patients [6]; 1.0 mg, placebo 10.3%) of the same compound?
**A.** Its value is 11.5%.

**Q.** And the “Serious Adverse Events (SAEs), number of subjects” value (SLE patients [6]; 2.5 mg)?
**A.** The value was 8 subjects.

**Q.** And the “early withdrawal due to AE, number of subjects” value (SLE patients [6]; 2.5 mg)?
**A.** Its value is 3 subjects.

**Q.** What about the “subjects who prematurely terminated the study” value (SLE patients [6]; 2.5 mg (82 randomized)) of the same compound?
**A.** The value was 11 subjects.

**Q.** What about the AE incidence (SLE patients [6]; 2.5 mg weekly) of the same compound?
**A.** Its AE incidence is 75.6%.

**Q.** What about the “early withdrawal due to AE” value (SLE patients [6]; 2.5 mg) of the same compound?
**A.** The value was 3.7%.

**Q.** What about the “Serious Adverse Events (SAEs) incidence” value (SLE patients [6]; 2.5 mg, placebo 10.3%) of the same compound?
**A.** Its value is 9.8%.

**Q.** What about the cSRI positive responders (SLE patients [6]; ITT (FIG. 4), placebo 20%, p=0.058) of the same compound?
**A.** Its cSRI positive responders is 34%.

**Q.** And the “safety signal from AEs analysis and additional safety data” value (SLE patients [6]; all Edratide doses, no clear dose response)?
**A.** The value was “no significant safety signal”.

**Q.** And the “co-primary endpoints (change in SLEDAI 2K score baseline to LOV; AMS), active groups vs placebo” value (SLE patients [6]; any of the active treatment groups)?
**A.** The value was “no differences”.

**Q.** What about the “SF-36 mental or physical scores, differences between treatment groups” value (SLE patients [6]; in vivo) of the same compound?
**A.** The value was “No clinically or statistically significant differences”.

**Q.** What about the “cumulative change in steroid dose throughout the study, differences between treatment groups” value (SLE patients [6]; in vivo) of the same compound?
**A.** Its value is “No clinically or statistically significant differences”.

**Q.** What about the “early terminations due to AEs, Edratide vs placebo” value (SLE patients [6]; in vivo) of the same compound?
**A.** The value was “more often”.

**Q.** And the SAE incidence (SLE patients [6]; pooled Edratide group, placebo 10.3%)?
**A.** The SAE incidence was 9.5%.

**Q.** What about the “BILAG substantial response OR vs placebo” value (SLE patients [6]; prednisolone dose <20 mg at baseline, p=0.007) of the same compound?
**A.** Its value is 2.75.

**Q.** What about the BILAG substantial responders (SLE patients [6]; prednisolone dose <20 mg at baseline, placebo 19%, p=0.007 (FIG. 2B)) of the same compound?
**A.** The BILAG substantial responders was 40%.

**Q.** And the “mean reduction from baseline SLEDAI-2K score” value (SLE patients [6]; regardless of treatment)?
**A.** Its value is “about 35%”.

**Q.** And the BILAG substantial responders (SLE patients [6]; seropositive patients (anti-DNA>30 IU), placebo 26% (FIG. 2C))?
**A.** The BILAG substantial responders was 46%.

**Q.** What about the BILAG non-responders (SLE patients [6]; seropositive patients (anti-DNA>30 IU), placebo 68%, p=0.05) of the same compound?
**A.** Its BILAG non-responders is 42%.
